Where two headings read alike, the source gives them in different places.
What was measured:
[1] = target: T1, HIV-1 IN LEDGF/p75-dependent activity (Human immunodeficiency virus type 1 group M subtype B, UniProt P04585); assay: HTRF LEDGF-dependent IN assay; type: biochemical; details: for IC50: recombinant IN with LEDGF/p75, HTRF; for IN inhibitory activity (in words): LEDGF/p75-dependent IN activity
T1 construct: Recombinant His and FLAG-IN proteins and His and FLAG-LEDGF proteins were expressed in Escherichia coli strain BL21 (DE3); His or FLAG (separate preparations); made in house; host or cells: Escherichia coli BL21 (DE3)
Method: Recombinant His and FLAG-IN proteins and His and FLAG-LEDGF proteins were expressed in Escherichia coli strain BL21 (DE3) and purified, as previously described.
IN activity in the presence of recombinant LEDGF/p75 protein were determined as described before. IN was pre-incubated in reaction buffer containing 20 mM HEPES pH 7.5, 1 mM DTT, 1% glycerol, 20 mM MgCl2, 0.05% Brij-35 and 0.1 mg/mL BSA with increasing concentration of compounds for 1 h at room temperature. After the addition to this mixture of 9 nM DNA donor substrate, 50 nM DNA acceptor substrate and 50 nM LEDGF/p75 protein (when required), the reaction was incubated at 37 °C for 90 min. The addition of 4 nM of Europium–Streptavidin to the reaction mixture provided the HTRF signal, which was recorded using a Perkin Elmer (Waltham, MA, USA) Victor 3 plate reader with 314 nm for excitation wavelength and 668 and 620 nm for the wavelength of the acceptor and the donor substrates emission, respectively.

HIV-1 RT-RNase H [2] = target: T2, HIV-1 RT-RNase H (Human immunodeficiency virus type 1 group M subtype B, UniProt P04585); set-up: method as in PMID 23631411; details: cited from earlier work
T2 construct: preparation and purification of wild type p66/p51 HIV-1 RT; made in house

HIV-1 RT-RNase H [3] = target: T2, HIV-1 RT-RNase H; assay: RNase H inhibitory assay (fluorescent RNA/DNA hybrid); type: biochemical; details: for IC50: wild type p66/p51 HIV-1 RT
Method: The previously reported procedure was used for preparation and purification of wild type p66/p51 HIV-1 RT. Enzyme was stored in a 50% glycerol-containing buffer at −20 °C [32, 46]. An 18-nt 3′-fluorescein-labeled RNA annealed to a complementary 18-nt 5′-dabsyl-labeled DNA was used to determine IC50 values, following a previously described procedure. In brief, 1 μL of each inhibitor dissolved in DMSO was added to a 96-well plate, followed by 10 μL of the proper RT ([…]) in reaction buffer. The addition of 10 μL of RNA/DNA hybrid (2.5 μM) initiated the hydrolysis. Then, 50 mM Tris-HCl, pH 8.0, 60 mM KCl, 10 mM MgCl2, 1% DMSO, 150−800 ng of RT, 250 nM substrate, and increasing concentrations of inhibitor were chosen as final assay conditions. As negative control, wells containing only DMSO were used. Subsequently, the plates were incubated in a Spectramax Gemini EM fluorescence spectrometer for 10 min at 37 °C, measuring the fluorescence (λex = 485 nm; λem = 520 nm) at 1 min intervals in order to determine the linear initial rates in the presence (vi) and absence (vo) of inhibitor. Percent inhibition was assessed as 100(vo − vi)/vo and plotted against log[I]. Prism5 (GraphPad Software 5.0) was used to calculate the IC50 values. All assays were carried out in triplicate.

[4] = target: T1, HIV-1 IN LEDGF/p75-dependent activity; set-up: method as in PMID 23631411; details: first experiment, 3,4-catechol analogue of 5; cited from earlier work

| Compound | IC50 [1] | IC50 (HIV-1 RT-RNase H [3]) | other results |
| --- | --- | --- | --- |
| Cc1sc2nc(-c3ccc(O)c(O)c3)[nH]c(=O)c2c1C [Compound 8, 2-(3,4-dihydroxyphenyl)-5,6-dimethylthieno[2,3-d]pyrimidin-4(3H)-one] | 24.4 ± 2.6 µM | 0.26 ± 0.01 µM | IC50 (HIV-1 RT-RNase H [2]): 0.26 ± 0.01 µM |
| O=c1[nH]c(-c2ccc(O)c(O)c2)nc2sc3c(c12)CCCCC3 [Compound 9] | 18.3 ± 2.3 µM |  | IC50 (HIV-1 RT-RNase H [2]): 0.29 ± 0.11 µM |
| Cc1sc2nc(-c3cccc(O)c3O)[nH]c(=O)c2c1C [Compound 10, 2-(2,3-dihydroxyphenyl)-5,6-dimethylthieno[2,3-d]pyrimidin-4(3H)-one] | 12.6 ± 1.29 µM |  |  |
| Cc1sc2nc(-c3ccccc3O)[nH]c(=O)c2c1C [Compound 11, 2-(2-hydroxyphenyl)-5,6-dimethylthieno[2,3-d]pyrimidin-4(3H)-one] | 22 ± 2.8 µM |  |  |
| Cc1sc2nc(-c3ccc(O)cc3O)[nH]c(=O)c2c1C [Compound 12, 2-(2,4-dihydroxyphenyl)-5,6-dimethylthieno[2,3-d]pyrimidin-4(3H)-one] | 22.3 ± 1.57 µM |  |  |
| Cc1sc2nc(-c3cc(O)ccc3O)[nH]c(=O)c2c1C [Compound 13] | 85 ± 6 µM |  |  |
| Cc1sc2nc(-c3cc(O)cc(O)c3)[nH]c(=O)c2c1C [Compound 14, 2-(3,5-dihydroxyphenyl)-5,6-dimethylthieno[2,3-d]pyrimidin-4(3H)-one] | 3.7 ± 0.73 µM |  |  |
| O=c1[nH]c(-c2cccc(O)c2O)nc2sc3c(c12)CCCCC3 [Compound 15] | 24 ± 1 µM |  |  |
| O=c1[nH]c(-c2ccc(O)cc2O)nc2sc3c(c12)CCCCC3 [Compound 16] | 10 ± 1 µM |  |  |
| O=c1[nH]c(-c2cc(O)ccc2O)nc2sc3c(c12)CCCCC3 [Compound 17] | 5.65 ± 0.15 µM |  |  |
| O=c1[nH]c(-c2cc(O)cc(O)c2)nc2sc3c(c12)CCCCC3 [Compound 18] | 3.37 ± 0.48 µM |  |  |
| CC1CCCc2sc3nc(-c4ccc(O)c(O)c4)[nH]c(=O)c3c21 (stereo not shown) [Compound 19, 2-(3,4-dihydroxyphenyl)-5-methyl-5,6,7,8-tetrahydrobenzo[4,5]thieno[2,3-d]pyrimidin-4(3H)-one] | 5.9 ± 0.5 µM |  |  |
| CC(C)Cc1csc2nc(-c3ccc(O)c(O)c3)[nH]c(=O)c12 [Compound 20, 2-(3,4-dihydroxyphenyl)-5-isobutylthieno[2,3-d]pyrimidin-4(3H)-one] | 8.5 ± 2.5 µM |  |  |
| Cc1sc2nc(-c3ccco3)[nH]c(=O)c2c1C [Compound 21, 2-(furan-2-yl)-5,6-dimethylthieno[2,3-d]pyrimidin-4(3H)-one] | 5.75 ± 0.85 µM | 2.5 ± 0.1 µM |  |
| Cc1ccc(-c2nc3sc(C)c(C)c3c(=O)[nH]2)o1 [Compound 22, 5,6-dimethyl-2-(5-methylfuran-2-yl)thieno[2,3-d]pyrimidin-4(3H)-one] | 8.75 ± 0.35 µM | 14.4 ± 0.2 µM |  |
| Cc1sc2nc(-c3ccc([N+](=O)[O-])o3)[nH]c(=O)c2c1C [Compound 23] | 4.6 ± 0.82 µM |  | IC50 (HIV-1 RT-RNase H [2]): 16.9 ± 1.7 µM |
| Cc1sc2nc(-c3cccs3)[nH]c(=O)c2c1C [Compound 24, 5,6-dimethyl-2-(thiophen-2-yl)thieno[2,3-d]pyrimidin-4(3H)-one] | > 50 µM | 8.2 ± 1.3 µM | IN inhibitory activity (in words) [1]: inactive |
| Cc1sc2nc(-c3ccc([N+](=O)[O-])s3)[nH]c(=O)c2c1C [Compound 25, 5,6-dimethyl-2-(5-nitrothiophen-2-yl)thieno[2,3-d]pyrimidin-4(3H)-one] | 3.2 ± 0.8 µM | > 50 µM | RNase H inhibitory activity (in words) (HIV-1 RT-RNase H [3]): completely inactive |
| Cc1sc2nc(-c3c[nH]c4ccccc34)[nH]c(=O)c2c1C [Compound 26] | 2.85 ± 0.85 µM |  | IC50 (HIV-1 RT-RNase H [2]): 0.48 ± 0.6 µM |
| Cc1sc2nc(-c3ccc[nH]3)[nH]c(=O)c2c1C [Compound 27, 5,6-dimethyl-2-(1H-pyrrol-2-yl)thieno[2,3-d]pyrimidin-4(3H)-one] | > 50 µM | 35.3 ± 1.5 µM | IN inhibitory activity (in words) [1]: completely IN inactive |
| Cc1sc2nc(-c3cccn3C)[nH]c(=O)c2c1C [Compound 28, 5,6-dimethyl-2-(1-methyl-1H-pyrrol-2-yl)thieno[2,3-d]pyrimidin-4(3H)-one] | > 50 µM | 14.8 ± 0.6 µM | IN inhibitory activity (in words) [1]: completely IN inactive |
| CCCc1c(C)sc2nc(-c3ccc(O)c(O)c3)[nH]c(=O)c12 [Compound 29] |  |  | IC50 [4]: > 50 µM |

From paper PMC10537185, “Dihydroxyphenyl- and Heteroaromatic-Based Thienopyrimidinones to Tackle HIV-1 LEDGF/p75-Dependent IN Activity” (Molecules, 2023)
